The record followed here is patent publication US12129237B2, “Substituted diaminocarboxamide and diaminocarbonitrile pyrimidines, compositions thereof, and methods of treatment therewith” (SIGNAL PHARMACEUTICALS, LLC, priority 2011, dated 2024).

Some results are limits rather than exact numbers.

T1 sequence (P45983 whole entry): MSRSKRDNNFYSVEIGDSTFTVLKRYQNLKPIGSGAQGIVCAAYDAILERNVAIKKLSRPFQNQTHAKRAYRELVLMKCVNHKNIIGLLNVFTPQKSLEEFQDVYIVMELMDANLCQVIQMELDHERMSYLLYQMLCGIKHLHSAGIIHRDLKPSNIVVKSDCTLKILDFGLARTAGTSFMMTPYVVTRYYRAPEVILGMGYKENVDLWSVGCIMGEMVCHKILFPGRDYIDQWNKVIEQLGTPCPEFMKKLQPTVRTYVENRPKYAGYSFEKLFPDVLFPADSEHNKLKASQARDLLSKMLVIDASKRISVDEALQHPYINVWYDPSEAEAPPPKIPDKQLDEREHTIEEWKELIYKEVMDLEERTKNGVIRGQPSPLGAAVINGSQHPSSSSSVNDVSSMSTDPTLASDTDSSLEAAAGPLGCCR

The first experiment has as its target T1, JNK1 (Homo sapiens, UniProt P45983).
T1 construct: purchased Carna Biosciences
Nature of the experiment: JNK1 biochemical assays (one or more of: time resolved fluorescence, Z'-LYTE Cascade, radioactive). The following applies: Table 2; JNK1 IC50 activity level; read-out: Act. Level.
Regarding `NC(=O)c1cnc(NCCc2ccccn2)nc1Nc1ccccc1` [Example B-63, 4-(phenylamino)-2-(2-(pyridin-2-yl)ethylamino)pyrimidine-5-carboxamide], the IC50 lay in the range of 200 to 800 nM.
Take `CC(=O)N[C@H]1CC[C@H](Nc2ncc(C(N)=O)c(Nc3ccccc3)n2)CC1` [Example B-6, 2-((1r,4r)-4-acetamidocyclohexylamino)-4-(phenylamino)pyrimidine-5-carboxamide]: the IC50 is under 200 nM.
Turning to `NC(=O)c1cnc(N[C@@H]2CCc3cnccc3C2)nc1N[C@@H]1CCC[C@H](O)C1` [Example B-96, 4-((1R,3S)-3-hydroxycyclohexylamino)-2-((R)-5,6,7,8-tetrahydroisoquinolin-6-ylamino)pyrimidine-5-carboxamide], the IC50 is under 200 nM.
Consider `COc1cc(Nc2ncc(C(N)=O)c(Nc3ccccc3)n2)cc(OC)c1` [Example B-23, 2-(3,5-dimethoxyphenylamino)-4-(phenylamino)pyrimidine-5-carboxamide], for which the IC50 is under 200 nM.
Still for that read-out and setting: as for `NC(=O)c1cnc(N[C@@H]2CCc3ccccc3C2)nc1N[C@@H]1CCC[C@H](O)C1` [Example B-84, 4-((1R,3S)-3-hydroxycyclohexylamino)-2-((R)-1,2,3,4-tetrahydronaphthalen-2-ylamino)pyrimidine-5-carboxamide], the figure is under 200 nM.
As to `CC(C)Nc1nc(N[C@@H]2CCc3cnccc3C2)ncc1C(N)=O` [Example B-92, (R)-4-(isopropylamino)-2-(5,6,7,8-tetrahydroisoquinolin-6-ylamino)pyrimidine-5-carboxamide], the IC50 was under 200 nM.

The experiment is the same for the next values; noted with them: Table 3; JNK1 IC50 activity level; read-out: Act. Level.
In the case of `N#Cc1cnc(N[C@H]2CC[C@H](O)CC2)nc1N[C@@H]1CCC[C@H](O)C1` [Example C-8, 4-((1R,3S)-3-hydroxycyclohexylamino)-2-((1r,4R)-4-hydroxycyclohexylamino) pyrimidine-5-carbonitrile], the IC50 is under 200 nM.
`CO[C@H]1CC[C@H](Nc2ncc(C#N)c(N[C@@H]3CCC[C@H]3O)n2)CC1` [Example C-18, 4-((1R,2R)-2-hydroxycyclopentylamino)-2-((1r,4R)-4-methoxycyclohexylamino) pyrimidine-5-carbonitrile]: the IC50 was under 200 nM.
On the same count and under the same terms, the figure for `CN(C)C(=O)C(C)(C)C1CCC(Nc2ncc(C#N)c(N[C@@H]3CCC[C@H](O)C3)n2)CC1` (stereo partly drawn) [Example C-34, 2-(4-(5-cyano-4-((1R,3S)-3-hydroxycyclohexylamino)pyrimidin-2-ylamino)cyclohexyl)-N,N,2-trimethylpropanamide] is under 200 nM; for `CO[C@H]1CC[C@H](Nc2ncc(C#N)c(N[C@@H]3CCCC[C@@](C)(O)C3)n2)CC1` [Example C-53, 4-((1R,3R)-3-hydroxy-3-methylcycloheptylamino)-2-((1r,4R)-4-methoxycyclohexylamino) pyrmidine-5-carbonitrile] it is under 200 nM; for `CCO[C@H]1CC[C@H](Nc2ncc(C#N)c(N[C@@H]3CCC[C@](C)(O)C3)n2)CC1` [Example C-28, 2-((1r,4R)-4-ethoxycyclohexylamino)-4-((1R,3S)-3-hydroxy-3-methylcyclohexylamino) pyrimidine-5-carbonitrile] it is under 200 nM.
For the compound `CC(C)(C)Nc1ncc(C#N)c(N[C@@H]2CCCC[C@H](O)C2)n1` [Example C-38, 2-(tert-butylamino)-4-((1R,3S)-3-hydroxycycloheptylamino) pyrimidine-5-carbonitrile], the IC50 is under 200 nM.
For the compound `N#Cc1cnc(NC2CCOCC2)nc1N[C@@H]1CCC[C@H](O)C1` [Example C-5, 4-((1R,3S)-3-hydroxycyclohexylamino)-2-(tetrahydro-2H-pyran-4-ylamino)pyrimidine-5-carbonitrile], the IC50 fell in the range of 200 to 800 nM.

Staying with this experiment, now noted: one or more of the JNK1 biochemical assays; read-out: Act. Level (JNK1 IC50 activity level).
Turning to `CC(C)(C)Nc1ncc(C(N)=O)c(NC(C)(C)C)n1` [Example 238, 2,4-bis(tert-butylamino)pyrimidine-5-carboxamide], the IC50 fell in the range of 200 to 800 nM.
The same measure, in the same setting: as for `CC(C)(C)Nc1nc(N[C@@H]2CCC[C@@H](O)C2)ncc1C(N)=O` [Example 299, 4-(tert-butylamino)-2-((1R,3R)-3-hydroxycyclohexylamino)pyrimidine-5-carboxamide], the figure is under 200 nM; as for `CC(C)C(C)(C)Nc1nc(N[C@H]2CC[C@H](O)CC2)ncc1C(N)=O` [Example 275, 4-(2,3-dimethylbutan-2-ylamino)-2-((1r,4r)-4-hydroxycyclohexylamino)pyrimidine-5-carboxamide], under 200 nM; as for `C[C@@H]1CC[C@@H](Nc2nc(N[C@H](C)C(C)(C)C)ncc2C(N)=O)C[C@H]1O` [Example 461, 2-((R)-3,3-dimethylbutan-2-ylamino)-4-((1R,3R,4R)-3-hydroxy-4-methylcyclohexylamino)pyrimidine-5-carboxamide], under 200 nM.
Same read-out and setting: as for `CC1(Nc2nc(N[C@H]3CC[C@H](O)CC3)ncc2C(N)=O)CCCC1` [Example 322, 2-((1r,4r)-4-hydroxycyclohexylamino)-4-(1-methylcyclopentylamino)pyrimidine-5-carboxamide], the figure is under 200 nM.
Still for that read-out and setting: as for `CC1(Nc2nc(N[C@H]3CC[C@H](OCC(F)(F)F)CC3)ncc2C(N)=O)CCC1` [Example 415, 4-(1-methylcyclobutylamino)-2-((1r,4r)-4-(2,2,2-trifluoroethoxy)cyclohexylamino)pyrimidine-5-carboxamide], the figure is under 200 nM.
Regarding `CC(C)(C)C12CC(Nc3nc(N[C@H]4CC[C@H](O)CC4)ncc3C(N)=O)(C1)C2` [Example 493, 4-(3-tert-butylbicyclo[1.1.1]pentan-1-ylamino)-2-((1r,4r)-4-hydroxycyclohexylamino)pyrimidine-5-carboxamide], the IC50 is under 200 nM.
Same read-out and setting: the figure for `CCO[C@H]1CC[C@H](Nc2ncc(C(N)=O)c(NC(C)(C)C(C)C)n2)CC1` [Example 273, 4-(2,3-dimethylbutan-2-ylamino)-2-((1r,4r)-4-ethoxycyclohexylamino)pyrimidine-5-carboxamide] is under 200 nM; for `C[C@@H]1CC[C@@H](Nc2nc(NC3(C)CCCC3)ncc2C(N)=O)C[C@H]1O` [Example 475, 4-((1R,3R,4R)-3-hydroxy-4-methylcyclohexylamino)-2-(1-methylcyclopentylamino)pyrimidine-5-carboxamide] it is under 200 nM; for `CC(C)(C)Nc1nc(N[C@H]2CCCC[C@H](O)C2)ncc1C(N)=O` [Example 387, 4-(tert-butylamino)-2-((1S,3S)-3-hydroxycycloheptylamino)pyrimidine-5-carboxamide] it is under 200 nM.
Take `CO[C@H]1CC[C@H](Nc2ncc(C(N)=O)c(NC(C)(C)C(C)C)n2)CC1` [Example 274, 4-(2,3-dimethylbutan-2-ylamino)-2-((1r,4r)-4-methoxycyclohexylamino)pyrimidine-5-carboxamide]: the IC50 is under 200 nM.
Same read-out and setting: as for `CO[C@H]1CC[C@H](Nc2ncc(C(N)=O)c(N[C@H](C)C(C)(C)C)n2)CC1` [Example 279, 4-((R)-3,3-dimethylbutan-2-ylamino)-2-((1r,4R)-4-methoxycyclohexylamino)pyrimidine-5-carboxamide], the figure is under 200 nM; as for `NC(=O)c1cnc(NC2CCC(F)(F)CC2)nc1N[C@@H]1CCC[C@@H]1CO` [Example 241, 2-(4,4-difluorocyclohexylamino)-4-((1R,2S)-2-(hydroxymethyl)cyclopentylamino)pyrimidine-5-carboxamide], under 200 nM.

Staying with this experiment, now noted: tested in one or more of the JNK1 biochemical assays; read-out: Act. Level (JNK1 biochemical assay IC50 activity level).
For the compound `C[C@H](Nc1ncc(C(N)=O)c(N[C@H]2CC[C@@H](O)CC2)n1)C1CCCCC1` [Example A-125, 2-((S)-1-cyclohexylethylamino)-4-((1s,4R)-4-hydroxycyclohexylamino)pyrimidine-5-carboxamide], the IC50 is under 200 nM.
As to `COC[C@H]1CC[C@H](Nc2ncc(C(N)=O)c(N[C@H]3CCN(C(C)=O)C3)n2)CC1` [Example A-85, 4-((S)-1-acetylpyrrolidin-3-ylamino)-2-((1r,4S)-4-(methoxymethyl)cyclohexylamino)pyrimidine-5-carboxamide], the IC50 was in the range of 200 to 800 nM.
In the case of `CO[C@H]1CC[C@H](Nc2ncc(C(N)=O)c(N[C@@H]3CCNC(=O)C3)n2)CC1` [Example A-26, 2-((1r,4R)-4-methoxycyclohexylamino)-4-((R)-2-oxopiperidin-4-ylamino)pyrimidine-5-carboxamide], the IC50 was 200 to 800 nM.
The same measure, in the same setting: as for `CCO[C@H]1CC[C@@H](Nc2nc(NC3CCN(C(=O)CC)CC3)ncc2C(N)=O)CC1` [Example A-113, 4-((1s,4s)-4-ethoxycyclohexylamino)-2-(1-propionylpiperidin-4-ylamino)pyrimidine-5-carboxamide], the figure is under 200 nM; as for `CC(C)CC(=O)N1CCC(Nc2ncc(C(N)=O)c(N[C@H]3CC[C@@H](O)C3)n2)CC1` [Example A-87, 4-((1S,3R)-3-hydroxycyclopentylamino)-2-(1-(3-methylbutanoyl)piperidin-4-ylamino)pyrimidine-5-carboxamide], under 200 nM.
Regarding `CC(C)Nc1nc(NC2CCC3(CC2)OCCO3)ncc1C(N)=O` [Example A-11, 2-(1,4-dioxaspiro[4.5]decan-8-ylamino)-4-(isopropylamino)pyrimidine-5-carboxamide], the IC50 was in the range of 200 to 800 nM.
On the same count and under the same terms, the figure for `C[C@@H]1CC[C@@H](Nc2nc(N[C@H]3CC[C@H](O)CC3)ncc2C(N)=O)C[C@H]1O` [Example A-179, 4-((1R,3R,4R)-3-hydroxy-4-methylcyclohexylamino)-2-((1r,4R)-4-hydroxycyclohexylamino)pyrimidine-5-carboxamide] is under 200 nM.
For the compound `C[C@H](Nc1ncc(C(N)=O)c(N[C@H]2CC[C@@H](CO)CC2)n1)C1CCCCC1` [Example A-122, 2-((S)-1-cyclohexylethylamino)-4-((1s,4R)-4-(hydroxymethyl)cyclohexylamino)pyrimidine-5-carboxamide], the IC50 is under 200 nM.
On the same count and under the same terms, as for `NC(=O)c1cnc(NC23CCC(CC2)CC3)nc1N[C@@H]1CCC[C@H](O)C1` [Example A-159, 2-(bicyclo[2.2.2]octan-1-ylamino)-4-((1R,3S)-3-hydroxycyclohexylamino)pyrimidine-5-carboxamide], the figure is under 200 nM.
